Data published in patent US11446287B2, “Compounds and methods for EP300 or CBP modulation and indications therefor” (Opna Immuno-Oncology SA, priority 2019, dated 2022).

target: T1, Recombinant human BRD4 containing dual bromodomains (BRD4-BD12 (1-477)) (Homo sapiens, UniProt O60885); assay: BRD4 Alphascreen binding assay
T1 construct: Recombinant human BRD4 containing dual bromodomains (BRD4-BD12 (1-477)); made in house; host or cells: E. coli BL21-CodonPlus (DE3), modified pET vector
Procedure, shortened: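 AlphaScreen proximity between Ni-chelate-bound BRD4-BD12 (1-477) and streptavidin-captured H4 K5/K8/K12/K16-acetyl peptide measured after 1 h room-temperature compound incubation and 30 min with 7.5 μg/ml beads. Buffer: 50 mM HEPES pH 7.5, 50 mM NaCl, 0.01% BSA, 0.01% Triton X-100; data plate-normalized and four-parameter fit for IC50.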

`CCOc1cc(C(=O)O)cc(OCC)c1-n1cc(-c2ccc(C#N)cc2F)c2ncc(-c3c(C)noc3C)cc21` [P-0217, 4-(3-(4-cyano-2-fluorophenyl)-6-(3,5-dimethylisoxazol-4-yl)-1H-pyrrolo[3,2-b]pyridin-1-yl)-3,5-diethoxybenzoic acid] and `CCOc1cc(C(=O)O)cc(OCC)c1-n1cc(-c2ccnc(F)c2)c2ncc(-c3c(C)noc3C)cc21` [P-0222, 4-(6-(3,5-dimethylisoxazol-4-yl)-3-(2-fluoropyridin-4-yl)-1H-pyrrolo[3,2-b]pyridin-1-yl)-3,5-diethoxybenzoic acid] fall in the same range of IC50: 1 to 8 µM for the first, 1 to 8 µM for the second.

Compared with `CCOc1cc(C(=O)O)cc(OCC)c1-n1cc(-c2ccc(C(=O)NC3CC3)cc2)c2ncc(-c3c(C)noc3C)cc21` [P-0218, 4-(3-(4-(cyclopropylcarbamoyl)phenyl)-6-(3,5-dimethylisoxazol-4-yl)-1H-pyrrolo[3,2-b]pyridin-1-yl)-3,5-diethoxybenzoic acid], `COc1cc(C(=O)O)cc(OC)c1-n1cc(-c2ccccc2)c2ncc(-c3c(C)noc3C)cc21` [P-0220, 4-(6-(3,5-dimethylisoxazol-4-yl)-3-phenyl-1H-pyrrolo[3,2-b]pyridin-1-yl)-3,5-dimethoxybenzoic acid] is lower in IC50: 1 to 8 µM for the first, 0.0001 to 1 µM for the second. The second is the more potent here.

Compared with `COC(=O)c1cc(OC)c(-n2cc(-c3ccccc3)c3ncc(-c4c(C)noc4C)cc32)c(OC)c1` [P-0219, methyl 4-(6-(3,5-dimethylisoxazol-4-yl)-3-phenyl-1H-pyrrolo[3,2-b]pyridin-1-yl)-3,5-dimethoxybenzoate], `COc1cccc(OC)c1-n1cc(-c2ccccc2)c2ncc(-c3c(C)noc3C)cc21` [P-0221, 4-(1-(2,6-dimethoxyphenyl)-3-phenyl-1H-pyrrolo[3,2-b]pyridin-6-yl)-3,5-dimethylisoxazole] is higher in IC50: 1 to 8 µM for the first, 8 to 1000 µM for the second.

`Cc1noc(C)c1-c1cnc2c(c1)c(-c1ccc(C(=O)O)cc1OC(F)(F)F)cn2-c1ccccc1F` [P-0223, 4-(5-(3,5-dimethylisoxazol-4-yl)-1-(2-fluorophenyl)-1H-pyrrolo[2,3-b]pyridin-3-yl)-3-(trifluoromethoxy)benzoic acid] and `Cc1noc(C)c1-c1cnc2c(-c3ccc(F)cc3F)cn(-c3ccc(C(=O)O)cc3OC(F)(F)F)c2c1` [P-0229, 4-(3-(2,4-difluorophenyl)-6-(3,5-dimethylisoxazol-4-yl)-1H-pyrrolo[3,2-b]pyridin-1-yl)-3-(trifluoromethoxy)benzoic acid] fall in the same range of IC50: 1 to 8 µM for the first, 1 to 8 µM for the second.

`CCOc1cccc(Cl)c1-n1cc(-c2ccccc2)c2ncc(-c3c(C)noc3C)cc21` [P-0224, 4-(1-(2-chloro-6-ethoxyphenyl)-3-phenyl-1H-pyrrolo[3,2-b]pyridin-6-yl)-3,5-dimethylisoxazole] and `CCOc1ccc(C(=O)O)cc1-n1cc(-c2ccccc2)c2ncc(-c3c(C)noc3C)cc21` [P-0225, 3-(6-(3,5-dimethylisoxazol-4-yl)-3-phenyl-1H-pyrrolo[3,2-b]pyridin-1-yl)-4-ethoxybenzoic acid] fall in the same range of IC50: 1 to 8 µM for the first, 1 to 8 µM for the second.

`Cc1noc(C)c1-c1cnc2c(c1)c(-c1ccc(C(=O)O)cc1OC(F)(F)F)cn2C1CCOCC1` [P-0226, 4-(5-(3,5-dimethylisoxazol-4-yl)-1-(tetrahydro-2H-pyran-4-yl)-1H-pyrrolo[2,3-b]pyridin-3-yl)-3-(trifluoromethoxy)benzoic acid] and `Cc1noc(C)c1-c1cnc2c(c1)c(-c1ccc(C(=O)O)cc1OC(F)(F)F)cn2C1CCC(F)(F)CC1` [P-0227, 4-(1-(4,4-difluorocyclohexyl)-5-(3,5-dimethylisoxazol-4-yl)-1H-pyrrolo[2,3-b]pyridin-3-yl)-3-(trifluoromethoxy)benzoic acid] fall in the same range of IC50: 1 to 8 µM for the first, 1 to 8 µM for the second.

`Cc1noc(C)c1-c1cnc2c(c1)c(-c1ccc(C(=O)O)cc1OC(F)(F)F)c(C)n2-c1ccccn1` [P-0228, 4-(5-(3,5-dimethylisoxazol-4-yl)-2-methyl-1-(pyridin-2-yl)-1H-pyrrolo[2,3-b]pyridin-3-yl)-3-(trifluoromethoxy)benzoic acid] was tested, and the IC50 was 1 to 8 µM.
